*1 amine or outer side, *2 acyl side, *3 side chain or, on linkers, in order; H or OH if unused. Where a SMILES comes first, the peptide text is derived from it. Bridges are numbered along the chain shown (N, C = ends). Where no end group is shown, it is not given here. [ ]: non-standard residue; d: D form. The star is where a group is joined. X2 = N=C(N)NCCC[C@@H](C(=O)[*:2])N(CCc1ccc(N[*:3])cc1)[*:1]; Acetyl(2-naphthyloxy) = O=C(COc1ccc2ccccc2c1)*; Acetyl(2-naphthyl) = O=C(Cc1ccc2ccccc2c1)*; NH(2S-methylbutyl) = CC[C@H](C)CN*; 2Naphthoyl = O=C(c1ccc2ccccc2c1)*; X1 = O=C(Cc1ccc(N[*:1])cc1)[*:2]; Orn = NCCC[C@H](N)C(=O)O; X6 = O=C(C(Br)c1ccccc1)*; X9 = O=C(C(Cl)c1ccccc1)*; Inp = O=C(O)C1CCNCC1; BrAc = O=C(CBr)*
Legend:
anesthetized rats = test: Diuresis in anesthetized rats; format: in vivo, rat; details: versus baseline, FIG. 3
Procedure: In one set of examples, cannulae were placed in the left and right ureters and femoral vein of anesthetized rats and urine was collected from the ureters. Analog peptides were administered via the femoral vein. Prior to infusing the analog peptides, saline was infused for 30 minutes, urine was collected for 6 five-minute baseline periods and urine volume was determined gravimetrically. Following these baseline collection periods, various analog peptides were infused for 30 or 60 minutes and urine volume was measured in five-minute periods during infusion and for 60 minutes following infusion (at which time rats were returned to saline). Data was examined by averaging urine flow rates for six five-minute baseline control periods immediately preceding infusion, and comparing values during and after administration of peptides with the "baseline" control values. Responses to peptides are thus evaluated and plotted as the percent of baseline control responses. Specific examples are shown in FIGS. 3A-H. The error bars at the beginning of the graphs represent baseline values +standard deviations. Responses to peptides that are substantially above baseline ±SD can thus be interpreted as being statistically significant increases.

[1] = molecular target: T1, specific ANP receptor sites on BASM or BAE cells (Bos taurus, UniProt P10730); test: Competitive displacement receptor binding of (125I)-rANP(126-150) on cultured cells; parameters: species or system bovine; details: for prevention of (125I)-rANP(126-150) binding to BASM cell-associated receptors (FIG. 2): increasing concentrations of unlabeled peptide, BASM cells
T1 construct: specific receptor sites on BASM or BAE cells; endogenous in cells; host or cells: cultured BASM and BAE cells
T1 sequence (P10730 42-537): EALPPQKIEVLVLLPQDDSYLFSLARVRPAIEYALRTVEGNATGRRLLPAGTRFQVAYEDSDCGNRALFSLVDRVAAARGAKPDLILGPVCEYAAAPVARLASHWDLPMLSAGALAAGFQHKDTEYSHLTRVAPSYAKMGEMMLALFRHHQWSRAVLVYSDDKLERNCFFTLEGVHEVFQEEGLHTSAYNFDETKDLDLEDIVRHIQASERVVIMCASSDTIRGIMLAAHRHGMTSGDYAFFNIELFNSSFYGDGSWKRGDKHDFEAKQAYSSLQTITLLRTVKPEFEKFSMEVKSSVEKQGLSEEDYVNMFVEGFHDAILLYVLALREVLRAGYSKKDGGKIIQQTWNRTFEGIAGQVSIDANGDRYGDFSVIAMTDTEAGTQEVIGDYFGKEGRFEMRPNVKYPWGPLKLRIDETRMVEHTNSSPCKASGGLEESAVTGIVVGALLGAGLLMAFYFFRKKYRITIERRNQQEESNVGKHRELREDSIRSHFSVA
Source text: Analogous "competitive displacement" receptor binding assays are considered commonplace in the art for examining specific ligand-receptor interactions.
Assuming these ANP analogs act at one or more ANP receptor sites, then increased receptor affinity should reflect increased biological potency.

[2] = concentration of unlabeled peptide displacing 50% of maximal binding of 0.5 nM (125I)-rANP(126-150), BASM or BAE cells

| Compound | Ki(app) [1, 2] [nM] | further results |
| --- | --- | --- |
| CC[C@H](C)[C@@H]1NC(=O)[C@H](CCCNC(=N)N)NC(=O)[C@H](CC(=O)O)NC(=O)[C@H]([C@@H](C)CC)NC(=O)[C@H](CCCNC(=N)N)NC(=O)[C@@H](NC(=O)[C@H](CO)NC(=O)[C@H](CO)NC(=O)[C@@H](N)CCCNC(=N)N)CSSC[C@@H](C(=O)N[C@@H](CC(N)=O)C(=O)N[C@@H](CO)C(=O)N[C@@H](Cc2ccccc2)C(=O)N[C@@H](CCCNC(=N)N)C(=O)N[C@@H](Cc2ccc(O)cc2)C(=O)O)NC(=O)CNC(=O)[C@H](CC(C)C)NC(=O)CNC(=O)[C@H](CO)NC(=O)[C@H](CCC(N)=O)NC(=O)[C@H](C)NC(=O)CNC1=O [AP25, R--S--S--C--R--I--D--R--I--G--A--Q--S--G--L--G--C--N--S--F--R--Y] (H-RSSCRIDRIGAQSGLGCNSFRY-OH; disulfide 4-17) | 8.62 | urine flow rate (urine volume), diuretic response (anesthetized rats; infused at 5 mcg/min via femoral vein): significantly increased; prevention of (125I)-rANP(126-150) binding to BASM cell-associated receptors (FIG. 2) [1]: effectively prevent |
| CC[C@H](C)[C@@H]1NC(=O)[C@H](CCCNC(=N)N)NC(=O)[C@H](CC(=O)O)NC(=O)[C@H]([C@@H](C)CC)NC(=O)[C@H](CCCNC(=N)N)NC(=O)CNC(=O)CNC(=O)[C@H](Cc2ccccc2)NC(=O)[C@@H](N)CSSC[C@@H](C(N)=O)NC(=O)[C@H](C)NC(=O)CNC1=O [AP37, C-F-G-G-R-I-D-R-I-G-A-C-NH2] (H-CFGGRIDRIGAC-NH2; disulfide 1-12) | – | urine flow rate (urine volume), diuretic response (anesthetized rats; infused at 10 mcg/min via femoral vein): significantly increased; Ki ([1]; Table 2A, unit not given, in nM): 13.40; prevention of (125I)-rANP(126-150) binding to BASM cell-associated receptors (FIG. 2) [1]: effectively prevent |
| CC[C@H](C)[C@H](NC(=O)[C@H](CCCCN)NC(=O)[C@H](CC(=O)O)NC(=O)[C@@H](NC(=O)[C@H](CCCNC(=N)N)NC(=O)Cc1ccc(NC(=O)Cc2ccc3ccccc3c2)cc1)[C@@H](C)CC)C(N)=O [AP799] ({Acetyl(2-naphthyl)}-[X1]RIDKI-NH2) | 3.6 | – |
| CC[C@H](C)[C@H](NC(=O)[C@H](CCCNC(=N)N)NC(=O)[C@H](CC(=O)O)NC(=O)[C@@H](NC(=O)[C@H](CCCCN)NC(=O)Cc1ccc(NC(=O)Cc2ccc3ccccc3c2)cc1)[C@@H](C)CC)C(N)=O [AP800] ({Acetyl(2-naphthyl)}-[X1]KIDRI-NH2) | 2.90 | – |
| CC[C@H](C)[C@H](NC(=O)[C@H](CCCNC(=N)N)NC(=O)[C@H](CC(=O)O)NC(=O)[C@@H](NC(=O)[C@H](CCCCNC(C)=O)NC(=O)Cc1ccc(NC(=O)COc2ccc3ccccc3c2)cc1)[C@@H](C)CC)C(N)=O [AP801] ({Acetyl(2-naphthyloxy)}-[X1]K(Ac)IDRI-NH2) | 3.95 | – |
| CC[C@H](C)[C@H](NC(=O)[C@H](CCCNC(=N)N)NC(=O)[C@H](CC(=O)O)NC(=O)[C@@H](NC(=O)[C@H](CCCCN)NC(=O)Cc1ccc(NC(=O)c2ccc3ccccc3c2)cc1)[C@@H](C)CC)C(N)=O [AP802] (2Naphthoyl-[X1]KIDRI-NH2) | 8.7 | – |
| CC[C@H](C)[C@H](NC(=O)[C@H](CCCNC(=N)N)NC(=O)[C@H](CC(=O)O)NC(=O)[C@@H](NC[C@H](CCCCN)NC(=O)Cc1ccc(NC(=O)Cc2ccc3ccccc3c2)cc1)[C@@H](C)CC)C(N)=O [AP806] | 14.0 | – |
| CC[C@H](C)[C@H](NC[C@H](CCCCN)NC(=O)[C@H](CC(=O)O)NC(=O)[C@@H](NC(=O)[C@H](CCCNC(=N)N)NC(=O)Cc1ccc(NC(=O)Cc2ccc3ccccc3c2)cc1)[C@@H](C)CC)C(N)=O [AP807] | 112 | – |
| CC[C@H](C)[C@H](NC(=O)[C@H](CCCNC(=N)N)NC(=O)[C@H](CC(=O)O)NC(=O)[C@@H](NC[C@H](CCCCN)NC(=O)Cc1ccc(NC(=O)COc2ccc3ccccc3c2)cc1)[C@@H](C)CC)C(N)=O [AP808] | 98.9 | – |
| CC[C@H](C)[C@H](NC(=O)[C@H](CCCNC(=N)N)NC(=O)[C@H](CC(=O)O)NC(=O)[C@@H](NC[C@H](CCCCN)NC(=O)Cc1ccc(NC(=O)c2ccc3ccccc3c2)cc1)[C@@H](C)CC)C(N)=O [AP809] | 14.7 | – |
| CC[C@H](C)CNC(=O)[C@H](CCCNC(=N)N)NC(=O)[C@H](CC(=O)O)NC(=O)[C@@H](NC(=O)[C@H](CCCNC(=N)N)NC(=O)C1CCN(C(=O)COc2ccc3ccccc3c2)CC1)[C@@H](C)CC [AP810] ({Acetyl(2-naphthyloxy)-Inp}-RIDR-{NH(2S-methylbutyl)}) | 14.1 | – |
| CC[C@H](C)CNC(=O)[C@H](CCCNC(=N)N)NC(=O)[C@H](CC(=O)O)NC(=O)[C@@H](NC(=O)[C@H](CCCNC(=N)N)NC(=O)Cc1ccc(NC(=O)c2ccc3ccccc3c2)cc1)[C@@H](C)CC [AP811] (2Naphthoyl-[X1]RIDR-{NH(2S-methylbutyl)}) | 2.52 | – |
| CC[C@H](C)CNC(=O)[C@H](CCCNC(=N)N)NC(=O)[C@H](CC(=O)O)NC(=O)[C@@H](NC(=O)[C@H](CCCNC(=N)N)NCC1CCN(C(=O)COc2ccc3ccccc3c2)CC1)[C@@H](C)CC [AP812] | 32.0 | – |
| CC[C@H](C)CNC(=O)[C@H](CCCNC(=N)N)NC(=O)[C@H](CC(=O)O)NC(=O)[C@@H](NC(=O)[C@H](CCCNC(=N)N)NC(=O)Cc1ccc(NC(=O)COc2ccc3ccccc3c2)cc1)[C@@H](C)CC [AP813] ({Acetyl(2-naphthyloxy)}-[X1]RIDR-{NH(2S-methylbutyl)}) | 56.0 | – |
| CC[C@H](C)CNC(=O)[C@H](CCCNC(=N)N)NC(=O)[C@H](CC(=O)O)NC(=O)[C@@H](NC[C@H](CCCCN)NC(=O)Cc1ccc(NC(=O)c2ccc3ccccc3c2)cc1)[C@@H](C)CC [AP814] | 33.0 | – |
| CC[C@H](C)[C@H](NC(=O)[C@H](CCCNC(=N)N)NC(=O)[C@H](CC(=O)O)NC(=O)[C@@H](NC(=O)[C@H](CCCN)NC(=O)Cc1ccc(NC(=O)COc2ccc3ccccc3c2)cc1)[C@@H](C)CC)C(N)=O [AP815] ({Acetyl(2-naphthyloxy)}-[X1][Orn]IDRI-NH2) | 10.0 | – |
| CC[C@H](C)[C@H](NC(=O)[C@H](CCCNC(=N)N)NC(=O)[C@H](CC(=O)O)NC(=O)[C@@H](NC(=O)[C@H](CCCNC(=N)N)NCCc1ccc(NC(=O)COc2ccc3ccccc3c2)cc1)[C@@H](C)CC)C(N)=O [AP816] (H-[X2](Acetyl(2-naphthyloxy))IDRI-NH2) | 17.4 | – |
| CC[C@H](C)[C@H](NC(=O)[C@H](CCCNC(=N)N)NC(=O)[C@H](CC(=O)O)NC(=O)[C@@H](NC(=O)[C@H](CCCNC(=N)N)NC(=O)Cc1ccc(NC(=O)C(Cl)c2ccccc2)cc1)[C@@H](C)CC)C(N)=O (stereo partly drawn) [AP817] (X9-[X1]RIDRI-NH2) | 21.1 | – |
| CC[C@H](C)[C@H](NC(=O)[C@H](CCCNC(=N)N)NC(=O)[C@H](CC(=O)O)NC(=O)[C@@H](NC(=O)[C@H](CCCNC(=N)N)NC(=O)Cc1ccc(NC(=O)C(Br)c2ccccc2)cc1)[C@@H](C)CC)C(N)=O (stereo partly drawn) [AP818] (X6-[X1]RIDRI-NH2) | 20.5 | – |
| CC[C@H](C)[C@H](NC(=O)[C@H](CCCNC(=N)N)NC(=O)[C@H](CC(=O)O)NC(=O)[C@@H](NC(=O)[C@H](CCCNC(=N)N)NC(=O)Cc1ccc(NC(=O)[C@H](Cc2ccccc2)NC(=O)CBr)cc1)[C@@H](C)CC)C(N)=O [AP819] (BrAc-F[X1]RIDRI-NH2) | 3.8 | – |
| CC[C@H](C)[C@H](NC(=O)[C@H](Cc1ccc(O)cc1)NC(=O)[C@@H](NC(=O)[C@H](CCCNC(=N)N)NC(=O)[C@@H](N)CC(=O)O)C(C)C)C(=O)N[C@@H](Cc1c[nH]cn1)C(=O)N1CCC[C@H]1C(=O)N[C@@H](Cc1ccccc1)C(=O)O [angiotensin II, reference compound] | – | Ki(app) ([1]; specificity table, unrelated peptide hormones, unit inferred): > 500 nM |
| AFGGRIDRI-NH2 [AP103, A--F--G--G--R--I--D--R--I--NH2] | 12.42 | – |
| AFGGRIDRIG-NH2 [AP102, A--F--G--G--R--I--D--R--I--G--NH2] | 14.04 | – |
| AFGGRIDRIGY-NH2 [AP176, A--F--G--G--R--I--D--R--I--G--Y--NH2] | 6.65 | – |
| FGGRIDRI-NH2 [AP119, F--G--G--R--I--D--R--I--NH2] | 8.9 | – |
| FGGRIDRIGA-NH2 [AP126, F--G--G--R--I--D--R--I--G--A--NH2] | 2.16 | – |
| FGGRIDRIGAA-NH2 [AP104, F--G--G--R--I--D--R--I--G--A--A--NH2] | 2.50 | – |
| GGRIDRIGAA-NH2 [AP105, G--G--R--I--D--R--I--G--A--A--NH2] | > 200 | receptor binding / activity as judged by Ki, in words [1]: do not |
| RIDRIG-NH2 [AP125, R--I--D--R--I--G--NH2] | > 200 | receptor binding / activity as judged by Ki, in words [1]: do not |
| YAFGGRIDRIGA-NH2 [AP175, Y--A--F--G--G--R--I--D--R--I--G--A--NH2] | 5.94 | – |
